# Counter-ions that a name gives are not always drawn. Like-named read-outs stand apart in the source and are kept apart here.
# Tests used:
# [1] = molecular target: T1, Full-length wild type HIV-1 integrase (SF1) (Human immunodeficiency virus type 1 group M subtype B, UniProt P04585); test: Integrase strand-transfer scintillation proximity assay; type: biochemical; details: strand-transfer SPA, 246 nM integrase, 50 nM host DNA, 37° C., 50 min; read-out: IC50
# T1 construct: made in house; host or cells: E. coli BL21 (DE3)
# Description: The annealed product represents preprocessed viral ds-DNA derived from the LTR U5 sequence of the viral genome. A ds-DNA control to test for non-specific interactions was made using a 3′ di-deoxy derivative of oligonucleotide #1 annealed to oligonucleotide #2. The CA overhang at the 5′ end of the non-biotinylated strand of the ds-DNA was created artificially by using a complimentary DNA oligonucleotide shortened by 2 base pairs. This configuration eliminates the requisite 3′ processing step of the integrase enzyme prior to the strand-transfer mechanism.
# The annealed product had overhanging 3′ ends of poly(dA). […] The radiolabeled product was purified using a NENSORB cartridge and stored in stabilized aqueous solution (PerkinElmer).
# Reagents: Streptavidin-coated polyvinyltoluene (PVT) SPA beads were purchased from Amersham Biosciences (Piscataway, N.J.). Cesium chloride was purchased from Shelton Scientific, Inc. (Shelton, Conn.). White, polystyrene, flat-bottom, non-binding surface, 96-well plates were purchased from Corning. All other buffer components were purchased from Sigma (St. Louis, Mo.) unless otherwise indicated.
# Enzyme Construction: Full-length wild type HIV-1 integrase (SF1) sequence (amino acids 1-289) was constructed in a pET24a vector (Novagen, Madison, Wis.).
# Enzyme Purification: Full length wild-type HIV Integrase was expressed in E. coli BL21 (DE3) cells and induced with 1 mM isopropyl-1 thio-β-D-galactopyranoside (IPTG) when cells reached an optical density between 0.8-1.0 at 600 nm. Cells were lysed by microfluidation in 50 mM HEPES pH 7.0, 75 mM NaCl, 5 mM DTT, 1 mM 4-(2-Aminoethyl)benzenesulfonylfluoride HCl (AEBSF). Lysate was then centrifuged 20 minutes at 11 k rpm in GSA rotor in Sorvall RC-5B at 4° C. Supernant was discarded and pellet resuspended in 50 mM HEPES pH 7.0, 750 mM NaCl, 5 mM DTT, 1 mM AEBSF and homogenized in a 40 mL Dounce homogenizer for 20 minutes on ice. Homogenate was then centrifuged 20 minutes at 11 k rpm in SS34 rotor in Sorvall RC-5B at 4° C. Supernant was discarded and pellet resuspended in 50 mM HEPES pH 7.0, 750 mM NaCl, 25 mM CHAPS, 5 mM DTT, 1 mM AEBSF. Preparation was then centrifuged 20 minutes at 11 k rpm in SS34 rotor in Sorvall RC-5B at 4° C.
# Supernant was then diluted 1:1 with 50 mM HEPES pH 7.0, 25 mM CHAPS, 1 mM DTT, 1 mM AEBSF and loaded onto a Q-Sepharose column pre-equilibrated with 50 mM HEPES, pH 7.0, 375 mM NaCl, 25 mM CHAPS, 1 mM DTT, 1 mM AEBSF. The flow through peak was collected and NaCl diluted to 0.1 M with 50 mM HEPES pH 7.0, 25 mM CHAPS, 1 mM DTT, 0.5 mM AEBSF and loaded onto a SP-Sepharose column pre-equilibrated with 50 mM HEPES pH 7.0, 100 mM NaCl, 25 mM CHAPS, 1 mM DTT, 0.5 mM AEBSF. After washing the column with the equilibration buffer, a 100 to 400 mM NaCl gradient was run. The eluted integrase was concentrated and run on a S-300 gel diffusion column using 50 mM HEPES pH 7.0, 500 mM NaCl, 25 mM CHAPS, 1 mM DTT, 0.5 mM AEBSF. […] All columns were run in a 4° C. cold room.
# Viral DNA Bead Preparation: Streptavidin-coated SPA beads were suspended to 20 mg/mL in 25 mM 3-morpholinopropanesulfonic acid (MOPS) (pH 7.2) and 1.0% NaN3. Biotinylated viral DNA was bound to the hydrated SPA beads in a batch process by combining […] of ds-DNA to 1 mg of suspended SPA beads (10 μL of 50 μM viral DNA to 1 mL of 20 mg/mL SPA beads). The mixture was incubated at 22° C. for a minimum of 20 min. with occasional mixing followed by centrifugation at 2500 rpm for 10 min.
# [2] = system: HIV-1 RF virus in CEM-SS cells; test: HIV-1 cell protection assay (XTT dye reduction); type: cell-based
# Method: Six days later, 50 μl of XTT solution (1 mg/ml XTT tetrazolium and 20 nM phenazine methosulfate) were added to the wells and the plates were reincubated for four hours. Viability, as determined by the amount of XTT formazan produced, was quantified spectrophotometrically by absorbance at 450 nm.
# Data from CPE assays were expressed as the percent of formazan produced in compound-treated cells compared to formazan produced in wells of uninfected, compound-free cells. […] The 50% cytotoxicity concentration (CC50) was calculated as the concentration of compound that decreased the percentage of formazan produced in uninfected, compound-treated cells to 50% of that produced in uninfected, compound-free cells. The therapeutic index was calculated by dividing the cytotoxicity (CC50) by the antiviral activity (EC50).
# [3] = Human immunodeficiency virus 1, 144 h, RF strain of HIV-1, CEM-SS cells, XTT read-out after six days, read-out: EC50
# [4] = Human immunodeficiency virus 1, CEM-SS, 144 h
structure (smiles),measurement,setting,value
"O=C1c2ncc3c(c(CNCc4ccc(F)c(F)c4)cn3Cc3ccc(F)cc3)c2CCN1O [Example 48, 1-{[(3,4-difluorobenzyl)amino]methyl}-3-(4-fluorobenzyl)-7-hydroxy-3,7,8,9-tetrahydro-6H-pyrrolo[2,3-c]-1,7-naphthyridin-6-one]",IC50,[1],16.8 nM
same,EC50,[2]; [3],1 nM
"COCCN1CCN(Cc2cn(Cc3ccc(F)cc3)c3cnc4c(c23)CCN(O)C4=O)CC1 [Example 49, 3-(4-fluorobenzyl)-7-hydroxy-1-{[4-(2-methoxyethyl)piperazin-1-yl]methyl}-3,7,8,9-tetrahydro-6H-pyrrolo[2,3-c]-1,7-naphthyridin-6-one]",IC50,[1],16.2 nM
same,EC50,[2]; [3],3.2 nM
"CN(Cc1cn(Cc2ccc(F)cc2)c2cnc3c(c12)CCN(O)C3=O)C1CCCOC1 (stereo not drawn) [Example 50, 3-(4-fluorobenzyl)-7-hydroxy-1-{[methyl(tetrahydro-2H-pyran-3-yl)amino]methyl}-3,7,8,9-tetrahydro-6H-pyrrolo[2,3-c]-1,7-naphthyridin-6-one]",IC50,[1],11.9 nM
same,EC50,[2]; [3],1.8 nM
"CCOCCCOCc1cn(Cc2ccc(F)cc2)c2cnc3c(c12)CCN(O)C3=O [Example 51, 1-[(3-ethoxypropoxy)methyl]-3-(4-fluorobenzyl)-7-hydroxy-3,7,8,9-tetrahydro-6H-pyrrolo[2,3-c]-1,7-naphthyridin-6-one hydrochloride]",IC50,[1],17 nM
same,EC50,[2]; [4],0.4 nM
"O=C1c2ncc3c(c(Cl)cn3Cc3ccc(F)cc3)c2CCN1O [Example 52, 1-chloro-3-(4-fluorobenzyl)-7-hydroxy-3,7,8,9-tetrahydro-6H-pyrrolo[2,3-c]-1,7-naphthyridin-6-one]",IC50,[1],19 nM
same,EC50,[2]; [3],0.91 nM
"N#Cc1cn(Cc2ccc(F)cc2)c2cnc3c(c12)CCN(O)C3=O [Example 54, 3-(4-fluorobenzyl)-7-hydroxy-6-oxo-6,7,8,9-tetrahydro-3H-pyrrolo[2,3-c]-1,7-naphthyridine-1-carbonitrile]",IC50,[1],20 nM
same,EC50,[2]; [3],6.6 nM
"CC(C)COCc1cn(Cc2ccc(F)cc2)c2cnc3c(c12)CCN(O)C3=O [Example 56, 3-(4-fluorobenzyl)-7-hydroxy-1-(isobutoxymethyl)-3,7,8,9-tetrahydro-6H-pyrrolo[2,3-c]-1,7-naphthyridin-6-one]",IC50,[1],11 nM
same,EC50,[2]; [3],0.32 nM
"O=C1c2ncc3c(c(COCCOCc4ccccc4)cn3Cc3ccc(F)cc3)c2CCN1O [Example 57, 1-{[2-(benzyloxy)ethoxy]methyl}-3-(4-fluorobenzyl)-7-hydroxy-3,7,8,9-tetrahydro-6H-pyrrolo[2,3-c]-1,7-naphthyridin-6-one]",IC50,[1],12 nM
same,EC50,[2]; [3],0.69 nM
"CC(C)COCCOCc1cn(Cc2ccc(F)cc2)c2cnc3c(c12)CCN(O)C3=O [Example 58, 3-(4-fluorobenzyl)-7-hydroxy-1-[(2-isobutoxyethoxy)methyl]-3,7,8,9-tetrahydro-6H-pyrrolo[2,3-c]-1,7-naphthyridin-6-one]",IC50,[1],16 nM
same,EC50,[2]; [3],0.52 nM
CCCCOCCOCc1cn(Cc2ccc(F)cc2)c2cnc3c(c12)CCN(O)C3=O [Example 59],IC50,[1],16 nM
same,EC50,[2]; [3],4.9 nM
"CCCCOCc1cn(Cc2ccc(F)cc2)c2cnc3c(c12)CCN(O)C3=O [Example 60, 1-(butoxymethyl)-3-(4-fluorobenzyl)-7-hydroxy-3,7,8,9-tetrahydro-6H-pyrrolo[2,3-c]-1,7-naphthyridin-6-one]",IC50,[1],12 nM
same,EC50,[2]; [3],0.39 nM
"O=C1c2ncc3c(c(Br)cn3Cc3ccc(F)cc3)c2CCN1O [Example 61, 1-bromo-3-(4-fluorobenzyl)-7-hydroxy-3,7,8,9-tetrahydro-6H-pyrrolo[2,3-c]-1,7-naphthyridin-6-one]",IC50,[1],17 nM
same,EC50,[2]; [3],0.32 nM
"CC(=O)CCCOCc1cn(Cc2ccc(F)cc2)c2cnc3c(c12)CCN(O)C3=O [Example 63, 3-(4-fluorobenzyl)-7-hydroxy-1-{[(4-oxopentyl)oxy]methyl}-3,7,8,9-tetrahydro-6H-pyrrolo[2,3-c]-1,7-naphthyridin-6-one]",IC50,[1],10 nM
same,EC50,[2]; [3],3 nM
"Cc1ncccc1COCc1cn(Cc2ccc(F)cc2)c2cnc3c(c12)CCN(O)C3=O [Example 64, 3-(4-fluorobenzyl)-7-hydroxy-1-{[(2-methylpyridin-3-yl)methoxy]methyl}-3,7,8,9-tetrahydro-6H-pyrrolo[2,3-c]-1,7-naphthyridin-6-one]",IC50,[1],9 nM
same,EC50,[2]; [3],1 nM
COc1cccc(CCOCc2cn(Cc3ccc(F)cc3)c3cnc4c(c23)CCN(O)C4=O)c1 [Example 66],IC50,[1],13 nM
same,EC50,[2]; [3],1 nM
"O=C1c2ncc3c(c(COCCOc4ccccc4)cn3Cc3ccc(F)cc3)c2CCN1O [Example 67, 3-(4-fluorobenzyl)-7-hydroxy-1-[(2-phenoxyethoxy)methyl]-3,7,8,9-tetrahydro-6H-pyrrolo[2,3-c]-1,7-naphthyridin-6-one]",IC50,[1],15 nM
same,EC50,[2]; [3],1 nM
"CC(=O)c1cn(Cc2ccc(F)cc2)c2cnc3c(c12)CCN(O)C3=O [Example 68, 1-acetyl-3-(4-fluorobenzyl)-7-hydroxy-3,7,8,9-tetrahydro-6H-pyrrolo[2,3-c]-1,7-naphthyridin-6-one-methane (1:1)]",IC50,[1],12 nM
same,EC50,[2]; [4],3 nM
"O=C1c2ncc3c(c(CNC4CCOCC4)cn3Cc3ccc(F)cc3)c2CCN1O [Example 69, 3-(4-fluorobenzyl)-7-hydroxy-1-[(tetrahydro-2H-pyran-4-ylamino)methyl]-3,7,8,9-tetrahydro-6H-pyrrolo[2,3-c]-1,7-naphthyridin-6-one]",IC50,[1],20 nM
same,EC50,[2]; [3],27 nM
"CCn1ccnc1CN(C)Cc1cn(Cc2ccc(F)cc2)c2cnc3c(c12)CCN(O)C3=O [Example 70, 1-{[[(1-ethyl-1H-imidazol-2-yl)methyl](methyl)amino]methyl}-3-(4-fluorobenzyl)-7-hydroxy-3,7,8,9-tetrahydro-6H-pyrrolo[2 3-c]-1,7-naphthyridin-6-one]",IC50,[1],22 nM
same,EC50,[2]; [3],43 nM
"CCN(C)Cc1cn(Cc2ccc(F)cc2)c2cnc3c(c12)CCN(O)C3=O [Example 71, 1-{[ethyl(methyl)amino]methyl}-3-(4-fluorobenzyl)-7-hydroxy-3,7,8,9-tetrahydro-6H-pyrrolo[2,3-c]-1,7-naphthyridin-6-one]",IC50,[1],27 nM
same,EC50,[2]; [3],8 nM
"O=C1c2ncc3c(c(CN4C[C@@H](F)[C@H](F)C4)cn3Cc3ccc(F)cc3)c2CCN1O [Example 72, 1-{[(3R,4R)-3,4-difluoropyrrolidin-1-yl]methyl}-3-(4-fluorobenzyl)-7-hydroxy-3,7,8,9-tetrahydro-6H-pyrrolo[2,3-c]-1,7-naphthyridin-6-one]",IC50,[1],9 nM
same,EC50,[2]; [3],0.5 nM
